Data on five compounds can be found in patent publication US6037333A, “Microbe-inhibiting compositions” (Trustees of Tufts College, priority 1998, dated 2000).

In series [1] the target is proteinases P1, P2, P3, P4. In words: Zymography with proteinase inhibitors, components P1-P4. In kind it is biochemical, Acanthamoeba. As to conditions: inhibitor 1 mM. How it is done: (§1) To characterize the mechanism by which the mannose-mediated host-parasite interactions influence the amoeba-induced cytolysis and/or cytopathic effect, conditioned media obtained by incubating amoebae with primary cultures of corneal epithelium in the presence and absence of α-Man for 6 to 8 hours were analyzed by zymography. Media conditioned by only Acanthamoeba or only epithelial cells were also analyzed. Zymography was performed using separating gels containing 10% acrylamide and 2 mg/ml gelatin, essentially as described by D. E. Kleiner et al. (Anal Biochem. 218:325-329, 1994). Samples were diluted in the electrophoresis sample buffer (U. K. Laemmli, Nature 227:680-685, 1970) without mercaptoethanol and were applied to the gels. After electrophoresis, proteinases separated on the gels were renatured by incubating the gels in 2.5% Triton X-100 in 50 mM Tris-HCl, pH 7.5 to remove SDS. After incubating the gels for 18 hours in a developing buffer (50 mM Tris-HCl, pH 7.5 containing 10 mM CaCl2), the gels were stained with Coomassie brilliant blue. Areas of digestion were visualized as non-staining regions. In some experiments, samples were pre-treated with phenylmethylsulfonyl fluoride (PMSF, 1 mM), an inhibitor of […] for one hour prior to electrophoresis, or 1,10-phenanthroline (1 mM), an inhibitor of metalloproteinases, was added to the developing buffer.

In another series the test system is proteinases E1, E2. Description: Zymography with proteinase inhibitors, media conditioned by epithelial cells alone. In kind it is biochemical, rabbit. The conditions noted are these: inhibitor 1 mM. How it is done: as §1
For series [2], the target named is mannose binding protein (MBP) of Acanthamoeba (Acanthamoeba castellanii, UniProt Q6J288). In words: Solid-phase assay of 35S-labeled Acanthamoeba binding to Man-BSA coated wells. The conditions noted are these: for Inhibition of Acanthamoeba binding to Man-BSA: at 100 mM; for Inhibition of amoebic binding to Man-BSA / affinity of amoebic lectin: no concentration stated. More on the design: species or system Acanthamoeba strain MEEI 0184 (A. castellani). The source says:
The Acanthamoeba strain MEEI 0184 (A. castellani based on morphological characteristics) was derived from an infected human cornea and used throughout this study. ATCC strain 30868 should have similar properties. The parasites were axenically cultured in PYG medium. A solid-phase assay characterized the sugar binding properties of the mannose binding protein (MBP) of Acanthamoeba (Z. Yang et al., Infect. Immun. 65:439-445, 1997). Briefly, wells of microtiter plates were coated with bovine serum albumin-α-D-mannopyranosyl phenylisothiocyanate (Man-BSA, 15-25 moles of α-D-mannopyranoside/mole albumin, 0.03 μg/ml, 50μl/well in 0.1 M sodium carbonate buffer, pH 9.6, 4° C. overnight). Nonspecific binding was blocked with 1% BSA in phosphate buffered saline (PBS, 1 hour, room temperature). After adding a 50-μl aliquot of ^35 S-labeled Acanthamoeba (5×10^6 cells/ml in PBS; 1 to 2 cpm/parasite, >95% trophozoites) to each well, the plates were incubated for 2 hours at room temperature. After rinsing the cells with PBS to remove unbound Acanthamoeba, 0.1 ml of 2% sodium dodecyl sulfate (SDS) was added to each well, and the radioactivity in aliquots of solubilized material was determined in a scintillation counter.

The test system of series [3] is Acanthamoeba. In words: Acanthamoeba-induced cytopathic effect (CPE) assay, immortalized corneal epithelial cultures. The series is classed as cell-based. The conditions noted are these: for Inhibition of amoeba-induced CPE: no concentration stated. On the procedure:
Corneal epithelial cells with extended life span were also produced.
(§2) To characterize the role of carbohydrate-mediated host-parasite interactions in the Acanthamoeba-induced cytotoxicity of host cells, in vitro cytopathic assays were performed using both primary and immortalized cultures of corneal epithelium as host cells. Immortalized cells were assayed as confluent cultures in 24-well plates, and primary cells were assayed as confluent cells in 35-mm dishes or 6-well plates.
(§3) The plates were incubated at 37° C. in a CO2 incubator and periodically examined under a phase-contrast microscope for the presence of cell-free plaques in the monolayer for up to 28-30 hours. Control wells contained host cells without the parasites. At the end of the incubation period, the cultures were stained with Giemsa (Diff-Quik, Dade Diagnostic Inc., Aguada, PR). Approximate cell density in each well was estimated by scanning the stained plates in a calibrated, computer-assisted Bio-Image Scanner (Millipore, Ann Arbor, Mich.). Cytopathic effect (CPE) was expressed as percentage of the optical density by the following formula: [formula]
The CPE assays were performed in the SFB media containing one or more saccharides to be tested.
After staining with Giemsa, percent cell loss in each well was calculated based on the optical density in each well.

Series [4] relates to Acanthamoeba. In words: 51Cr release assay of amoeba-induced cytolysis of corneal epithelium. The series is classed as cell-based. On the procedure:
Chromium release experiments were performed to confirm the absence or occurrence of cytolysis. Visually, cell plaques or bare spots in a culture can indicate either cell loss by cytolysis, or separation of the cell from the culture surface, wherein detached cells, although initially viable, subsequently die. Cell lysis was quantified by measuring ^51 Cr release from prelabeled cells. After incubating confluent monolayer cultures of corneal epithelium in 24-well plates in cell culture medium containing Na^51 CrO4 (460 mCi/mg, 12 μCi/ml) for 18-20 hours, the cells were thoroughly rinsed and incubated with Acanthamoeba (1×10^6 parasites/ml SFB media). The four groups were (i) Acanthamoeba in media alone, (ii) Acanthamoeba in media containing α-Man, (iii) Acanthamoeba in media containing GlcNAc, and (iv) Acanthamoeba condition media. When approximately 50-70% cell loss occurred based on phase contrast microscopy, aliquots of cell-free conditioned medium from each well were analyzed. Supernatants from the four wells in each group were pooled before analysis. Percent specific release was calculated using E/T×100, where E is CPM released in test well minus CPM released in control (parasite-free) well and T is the total CPM (CPM cells+CPM supernatant in control wells). "CPM cells" was determined by incubating control wells with 0.5% Triton X-100. Conditioned media from each well was also analyzed for lactate dehydrogenase (LDH) release using an LDH assay kit (Sigma).

Series [5] deals with Acanthamoeba. In words: Adhesion of amoebae to corneal epithelial cell monolayer. The series is classed as cell-based. The conditions noted are these: saccharide present in media; listed as GlcNAc.
Series [6] deals with Acanthamoeba. In words: Acanthamoeba-induced CPE assay, primary cultures of corneal epithelium. The series is classed as cell-based. As to conditions: primary cultures as target cells. On the procedure: In vitro cytopathic assays were performed using cell cultures of corneal epithelium as target cells. Primary cell cultures of rabbit corneal epithelium were prepared according to published protocols (M. M. Jumblatt, Invest. Opthalmol. Visual Sci. 24:1139-43, 1983) using rabbit eyes from Pel-Freez Biologicals (N. Panjwani et al., Invest. Opthalmol. Visual Sci. 31:689-695, 1990) (Rogers, AK). Generally, seventy-five eyes were processed at a time. Primary cultures have limited life span and can only be passaged 2 to 3 times without significant alteration in cell morphology.
as §2
as §3, with “The parasites (>95% trophozoites) were rinsed three times in a serum-free Eagle's minimum essential medium supplemented with 0.4% bovine serum albumin (SFB) and aliquots of the parasite suspension (0.2×10^5 to 1×10^6 parasites/ml SFB medium, 300 μl/well for 24-well plates and 500 μl/well for 6-well plates or 35-mm dishes) were added to wells of confluent epithelial cultures which had been rinsed and preincubated in SFB medium for 2 hours. The” for “The”
Primary cultures were less susceptible to amoeba-induced CPE, requiring 1×10^6 parasites/ml to completely destroy the monolayer within 24 hours. This parasite concentration was five times higher than that required to produce the same effect when immortalized cultures were used as target host cells.

The subject of series [7] is Acanthamoeba-conditioned medium (ACM). In words: CPE assay with Acanthamoeba-conditioned medium (ACM). The series is classed as cell-based. How it is done: To determine whether the mechanism modulating the CPE produced by intact amoeba and amoeba-conditioned medium (ACM) are distinct, CPE and assays were also performed using ACM in the presence and the absence of saccharides. To produce ACM, exponentially growing parasites (>95% trophozoites) in PYG media (Proteose Peptone-yeast extract-glucose , J. T. Bornes et al., J. Parasitol. 56:904-906, 1970) were rinsed twice with SFB medium and incubated in serum-free SFB medium at concentrations between 2×10^5 to 1×10^6 cells/ml in a CO2 incubator for 24 hours. After removing the parasites by centrifugation, each supernatant was analyzed for its ability to induce CPE. Saccharides (α-Man and GIcNAc, 50 mM) were added either to the ACM after it was produced or to serum-free medium used to produce an ACM. The ACM produced in the presence of the saccharides was also analyzed after removal of the saccharides by centrifugation through Centricon 3 microconcentrators (Amicon Inc., Beverly, Mass.).
To determine the role of the parasitic secretory factors in the cytopathogenic mechanism, chromium release and CPE assays were performed using ACM. In this study, parasites were incubated in the SFB media for 24 hours, centrifuged to remove parasites and the conditioned medium was tested for its ability to produce cytolysis and CPE. The ACM produced remarkable CPE. […] Approximately 6 to 8 hours following the incubation of the monolayer with the ACM, the cell sheet at the edges of the monolayer began to lift and roll inwards and eventually the entire monolayer lifted en bloc from the dish. These observations were similar to those seen when the monolayers were incubated with trophozoites in the presence of α-Man. Unlike the CPE induced by intact amoeba, the CPE induced by the ACM was not inhibited by either α-Man or GlcNAc when the sugars were added to the ACM after it was produced. In the next set of experiments, ACM was produced in the presence of α-Man or GIcNAc and was tested for CPE-inducing activity. […] In addition, the filtrate and retentate obtained after filtering the ACM in Centricon 3 microconcentrators were tested for CPE-inducing activity. When the ACM was produced in the absence of either sugar, substantially all of the CPE-inducing activity was found in the retentate obtained after Centricon filtration.

Each structure is given as a SMILES string. Entries after “also recorded” stand apart in the source; their conditions may differ.

Sequence of mannose binding protein (MBP) of Acanthamoeba (Q6J288 entry or part of it): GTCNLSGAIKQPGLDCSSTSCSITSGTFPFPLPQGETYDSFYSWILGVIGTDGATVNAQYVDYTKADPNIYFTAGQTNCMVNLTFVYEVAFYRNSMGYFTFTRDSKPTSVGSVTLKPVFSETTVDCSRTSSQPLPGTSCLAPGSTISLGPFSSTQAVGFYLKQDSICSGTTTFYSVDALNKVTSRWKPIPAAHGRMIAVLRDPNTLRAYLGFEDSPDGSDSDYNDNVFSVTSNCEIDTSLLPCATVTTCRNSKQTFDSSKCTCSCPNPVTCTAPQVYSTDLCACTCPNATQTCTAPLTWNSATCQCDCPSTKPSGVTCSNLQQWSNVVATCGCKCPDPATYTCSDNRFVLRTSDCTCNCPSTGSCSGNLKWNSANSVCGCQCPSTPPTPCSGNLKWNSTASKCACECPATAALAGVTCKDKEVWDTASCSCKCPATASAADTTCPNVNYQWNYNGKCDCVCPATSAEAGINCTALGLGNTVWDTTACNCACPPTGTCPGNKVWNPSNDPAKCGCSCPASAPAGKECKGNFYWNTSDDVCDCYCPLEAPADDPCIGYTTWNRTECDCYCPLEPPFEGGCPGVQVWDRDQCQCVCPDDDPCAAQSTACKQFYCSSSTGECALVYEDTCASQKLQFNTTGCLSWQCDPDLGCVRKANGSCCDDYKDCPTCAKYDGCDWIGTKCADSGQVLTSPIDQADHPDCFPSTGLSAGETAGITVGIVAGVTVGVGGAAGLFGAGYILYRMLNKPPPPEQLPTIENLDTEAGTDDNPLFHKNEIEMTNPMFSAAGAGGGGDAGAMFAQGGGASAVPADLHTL

Regarding `c1cnc2c(c1)ccc1cccnc12` [1,10-phenanthroline], in [1], the “Susceptibility of component P1 (230 kD) to inhibitor” value is given as “resistant”, the “Susceptibility of component P2 (97 kD) to inhibitor” value is “resistant”, the “Susceptibility of component P3 (80 kD) to inhibitor” value is listed as “susceptible” and the “Susceptibility of component P4 (55 kD) to inhibitor” value is on record as “resistant”. For the same compound, in the series on proteinases E1, E2, the “Susceptibility of component E1 (93 kD) to inhibitor” value was “susceptible” and the “Susceptibility of component E2 (63 kD) to inhibitor” value is “susceptible”.
With `N[C@H]1C(O)O[C@H](CO)[C@@H](O)[C@@H]1O` (stereo partly drawn) [D-glucosamine], the “Toxicity to the epithelium” value with corneal epithelium is “Toxic”. For the same compound, the “Inhibition of Acanthamoeba binding to Man-BSA” value in [2] was “did not inhibit”.
Consider `N[C@@H]1C(O)O[C@H](CO)[C@@H](O)[C@@H]1O` (stereo partly drawn) [D-mannosamine], for which the “Inhibition of amoeba-induced CPE” value in the series on Acanthamoeba [3] is reported as “did not inhibit”. Besides, the “Toxicity to the epithelium” value in the series with corneal epithelium is on record as “Toxic”. Besides, in series [2], the “Inhibition of Acanthamoeba binding to Man-BSA” value is “did not inhibit” and the “Inhibition of amoebic binding to Man-BSA / affinity of amoebic lectin” value is “did not inhibit”.
For `CC(=O)N[C@H]1C(O)O[C@H](CO)[C@@H](O)[C@@H]1O` (stereo partly drawn) [N-acetyl-D-glucosamine], the inhibition at 310 µM in the series on Acanthamoeba [3] (Acanthamoeba, in Oryctolagus cuniculus, at 0.31 mM, read-out: Inhibition of cytopathic effect (% inhib. at indicated conc.)) worked out at 60%. In addition, the “Inhibition of amoeba-induced CPE” value in the series on Acanthamoeba [3] (listed as GlcNAc) was “inhibits CPE; also recorded: potent inhibitor; also recorded: nearly identical”; in the series with Acanthamoeba [6], “inhibited”. The “Attachment of cell layer to culture dish” value in the series on Acanthamoeba [3] (primary and immortalized cultures, entire assay period of 28 hours) was “remained firmly adhered”. Besides, the “Amoeba-induced cytolysis of corneal epithelial cells (microscopy, words)” value in the series with Acanthamoeba [3] (saccharide present in media) is “little evidence of cytolysis”. The “Percentage specific 51Cr release” value in the series on Acanthamoeba [4] (Acanthamoeba 1×10^6 parasites/ml in media containing the saccharide, media alone about 100) is approximately 80%. Besides, the “Inhibition of amoeba-induced cytolysis” value in the series on Acanthamoeba [4] (fifty millimolar, 51Cr release) is 10-20%. For the same compound, the “Adhesion of amoebae to the cell monolayer in presence of saccharide” value with Acanthamoeba [5] is “poor inhibitor; also recorded: adhered tightly”. Moreover, in series [2] (listed as GlcNAc), the “Inhibition of amoebic binding to Man-BSA / affinity of amoebic lectin” value was “weak inhibitor”. The inhibition at 50000 µM in series [2] (read-out: Inhibition of binding, % at indicated conc.) came out at 50%. For the same compound, the “CPE-inducing activity of ACM produced with saccharide, after removal of saccharide by Centricon filtration” value in series [7] (saccharide 50 mM) is reported as “did not have CPE-inducing activity”. For the same compound, in series [7] (saccharide 50 mM in medium used to produce ACM), the “CPE-inducing activity of ACM produced in SFB containing the saccharide” value is “did not induce CPE”. Also, the “Inhibition of ACM-induced CPE” value in series [7] (sugar (50 mM) added to the ACM after it was produced) was “not inhibited”.
Regarding `O=S(=O)(F)Cc1ccccc1` [PMSF, phenylmethylsulfonyl fluoride], in [1], the “Susceptibility of component P1 (230 kD) to inhibitor” value is given as “susceptible”, the “Susceptibility of component P2 (97 kD) to inhibitor” value is “susceptible”, the “Susceptibility of component P3 (80 kD) to inhibitor” value is listed as “resistant” and the “Susceptibility of component P4 (55 kD) to inhibitor” value is on record as “susceptible”. Also, in the series with proteinases E1, E2, the “Susceptibility of component E1 (93 kD) to inhibitor” value is “resistant” and the “Susceptibility of component E2 (63 kD) to inhibitor” value is “resistant”.
